Experimental data reported in PMC9374667 (Communications Biology, 2022).
Where “and” joins values, the source holds several entries; their conditions need not be identical. Identical values can stand only once.

Key:
db/db mice [1] = assay: Serum CHO, TG, FFA, LDL-C, HDL-C and ADPN in the fasted state; assay type: in vivo; set-up: FFA (Figure 4g) / LDL-C (Figure 4h) / HDL-C (Figure 4i) / ADPN (Figure 4j): unit not given here; settings: db/db mice
Experimental: The serum was collected by centrifugation at 3000 × g at 4 °C for 15 min and stored at −80 °C until analysis. TG, TC, LDL-C, HDL-C, and FFA were routinely tested on a Chemray 240 automatic biochemical analyzer (Chemray 240, Shenzhen, China). Serum levels of mouse adiponectin, interleukin6 (IL-6), tumor necrosis factor-α (TNF-α) were measured using commercial enzyme-linked immunosorbent assay (ELISA) kits (Nanjing Jiancheng Bioengineering Institute, Nanjing, China) and according to the manufacturer’s instructions. The levels of IL-6, TNF-α in 3T3-L1 adipocyte culture supernatant were also detected by ELISA.

db/db mice [2] = assay: HE staining of epididymal adipose tissue, adipocyte size; assay type: in vivo
Experimental: The adipose tissue was fixed overnight in 4% paraformaldehyde, then embedded in paraffin and cut into 5 µm thick slices. Tissue sections were stained with hematoxylin and eosin (H&E). For immunohistochemistry, sections were incubated with primary antibodies against F4/80 (1:100 dilution) diluted in the blocking solution at 4 °C overnight. The tissue sections were then incubated with the horseradish peroxidase (HRP)-conjugated secondary antibody at room temperature for 2 h. Finally, the sections were developed with diaminobenzidine (DAB) and counterstained with hematoxylin. Images were obtained under a microscope. To quantify the F4/80-positive macrophages, two random fields per sample were analyzed by Image J software. The IHC profiler plugin of ImageJ was used to calculate the F4/80 positive area.

db/db mice [3] = assay: Fasting serum insulin levels (ELISA); assay type: in vivo; set-up: insulin level (Figure 5b): unit not given here; settings: db/db mice
Experimental: Mice were fasted for 4 h for insulin resistance test and intraperitoneally injected with 1 unit/kg of insulin. Blood glucose levels were measured from the tail vein blood at 0, 15, 30, 45, 60, 90, and 120 min after injection. Plasma insulin levels were measured using an ultrasensitive mouse insulin ELISA kit (Nanjing Jiancheng Bioengineering Institute, Nanjing, China).

db/db mice [4] = assay: Glucose tolerance test (GTT); assay type: in vivo; set-up: blood glucose level / blood glucose AUC: unit not given here; settings: BBR 150mg/kg; for blood glucose level, mean: mean of 10 mice
[5] = pH of the solution after 24 hours of the dissolution test; assay type: physicochemical
Experimental: Solubilities were determined by adding excess sample to 30 mL different mediums, such as HCl solution, acetate buffer, phosphate buffer, SGF, FaSSIF and FeSSIF. The configuration of various buffer solutions is shown in Supplementary Table 2. After being shaken at 400 rpm at 37 °C for 0.5, 1, 2, and 24 h, 0.3 mL of suspension was sampled and centrifuged at 14,000 rpm for 8 min to isolate mother liquor, and then analyzed by HPLC after dilution. All samples were analyzed in triplicate. […]
into a 1000 mL flask followed by addition of about 800 mL of deionized water. The mixture is stirred until all solids are dissolved.
Add about 100 mL of 0.1 N HCl, check pH value with a pH meter and adjust the pH to 2.0 with HCl (1 N) or NaOH (1 N). Then dilute to the volume with deionized water.
* 1N sodium hydroxide: Weigh 8 g NaOH in a 200 mL plastic volumetric flask, add deionized water to volume and mix well. […]
phosphate and 3.093 g sodium chloride in a 500 mL volumetric flask, add about 0.450 L deionized water, and adjust the pH to 6.5 with 1N sodium hydroxide or 1 N hydrochloric acid. Make up to volume (0.5 […]
Step 2: Place and dissolve 1.120 g FaSSIF/FeSSIF/FaSSGF instant powder with 0.250 L of buffer (from step 1) in a 500 mL volumetric flask, then add buffer (from step 1) to volume, and mix well. […]
g sodium chloride in a 500 mL volumetric flask, add about 0.450 L deionized water, and adjust the pH to 5.0 with 1 N sodium hydroxide or 1 N hydrochloric acid. Make up to volume (500 mL) with
Step 2: Place and dissolve 5.600 g FaSSIF/FeSSIF/FaSSGF instant […]
0.750 L deionized water. Make up to volume (1000 mL) with deionized water and placed overnight.
(1 picture or pasted object on this page, not shown here)

[6] = In vitro dissolution studies: dynamic solubility in buffers and simulated biological fluids; assay type: physicochemical; set-up: BBR dissolved in CMC-Na (Figure S7a) / Ibu dissolved in CMC-Na (Figure S7b): unit not given here; settings: mean; for solubility at 0.5 h / solubility at 1 h / solubility at 2 h / solubility at 24 h: 37 °C
Experimental: Solubilities were determined by adding excess sample to 30 mL different mediums, such as HCl solution, acetate buffer, phosphate buffer, SGF, FaSSIF and FeSSIF. The configuration of various buffer solutions is shown in Supplementary Table 2. After being shaken at 400 rpm at 37 °C for 0.5, 1, 2, and 24 h, 0.3 mL of suspension was sampled and centrifuged at 14,000 rpm for 8 min to isolate mother liquor, and then analyzed by HPLC after dilution. All samples were analyzed in triplicate.

[7] = BBR 150mg/kg, serum, individual mice 1-6
[8] = 150 mg/kg, fasted state, individual mice
[9] = vs vehicle, BJ 75 and 150 mg/kg, BBR 150 mg/kg, Ibu 150 mg/kg
[10] = FaSSIF-V1 (fasted state simulated intestinal fluid), thermodynamic from solid, FaSSIF-V1 (pH 6.5)
[11] = FaSSIF-V1 (fasted state simulated intestinal fluid), FaSSIF-V1 (pH 6.5)
[12] = FeSSIF-V1 (fed state simulated intestinal fluid), thermodynamic from solid, FeSSIF-V1 (pH 5.0)
[13] = SGF (simulated gastric fluid), simulated gastric fluid, thermodynamic from solid, SGF (pH 2.0)
[14] = simulated gastric fluid, thermodynamic from solid, HCl solution (pH 1.0)

COc1ccc2cc3[n+](cc2c1OC)CCc1cc2c(cc1-3)OCO2 [BBR, Berberine chloride dihydrate]
ADPN (Figure 4j) (db/db mice [1]; [7]): 531.25 and 533.16 and 569.22 and 520.27 and 517.83 and 573.58 | FFA (Figure 4g) (db/db mice [1]; [7]): 783.9 and 765.7 and 789.7 and 738.2 and 717.7 and 741.1 | HDL-C (Figure 4i) (db/db mice [1]; [7]): 2.5 and 2.8 and 2.4 and 2.7 and 3 | LDL-C (Figure 4h) (db/db mice [1]; [7]): 4.79 and 4.96 and 3.72 and 5.17 and 5.15 | Serum CHO (db/db mice [1]; [8]): 4 mmol/L and 4.5 mmol/L and 5.2 mmol/L and 4.6 mmol/L and 4.2 mmol/L | Serum TG (db/db mice [1]; [8]): 1.66 mmol/L and 1.22 mmol/L and 1.5 mmol/L and 1 mmol/L and 0.96 mmol/L and 1.18 mmol/L | Serum levels of CHO, TG, FFA and LDL-C (db/db mice [1]; [9]): decreased | Serum levels of HDL-C and adiponectin (ADPN) (db/db mice [1]; [9]): increased | Cell diameter (adipocyte size of eWAT) (db/db mice [2]; 150 mg/kg, individual cells): 112.956 µm and 111.168 µm and 109.684 µm and 107.318 µm and 103.404 µm and 102.799 µm and 102.56 µm and 100.649 µm and 97.9486 µm and 97.2359 µm and 94.5814 µm and 93.4958 µm and 92.5409 µm and 90.4031 µm and 87.905 µm and 126.009 µm and 123.446 µm and 119.401 µm and 113.9 µm and 113.401 µm | Size of adipocytes in eWAT compared with vehicle (db/db mice [2]; BJ 75 and 150 mg/kg, BBR 150 mg/kg, Ibu 150 mg/kg): significantly reduced | insulin level (Figure 5b) (db/db mice [3]; BBR 150mg/kg, fasting serum, individual mice 1-6): 14.8249 and 14.5179 and 14.1979 and 10.7342 and 12.3345 and 12.7422 | Fasting serum insulin levels (db/db mice [3]; 150 mg/kg, 35 days of treatment, vs vehicle): did not produce significant effects | blood glucose level (db/db mice [4]; individual mice, time column 1 of 7 (time not printed)): 16.4 and 13.5 and 14.2 and 17.7 and 15.0 and 13.4 and 16.8 | blood glucose level (db/db mice [4]; individual mice, time column 2 of 7 (time not given)): 28.7 and 28.8 and 32.6 and 33.3 | blood glucose level (db/db mice [4]; individual mice, time column 3 of 7 (time not given)): 31.2 and 22.4 and 33.3 and 29.2 | blood glucose level (db/db mice [4]; individual mice, time column 4 of 7 (time not given)): 27.9 and 29.2 and 23.4 and 32.4 and 30.4 | blood glucose level (db/db mice [4]; individual mice, time column 5 of 7 (time not given)): 28.4 and 22.4 and 33.3 and 28.6 | blood glucose level (db/db mice [4]; individual mice, time column 6 of 7 (time not given)): 23.4 and 21.0 and 20.5 | blood glucose level (db/db mice [4]; individual mice, time column 7 of 7 (time not printed)): 17.7 and 16.7 and 22.7 and 19.6 and 20.9 | blood glucose level, mean (db/db mice [4]; time column 1 of 7 (time not printed)): 15 mmol/L | blood glucose level, mean (db/db mice [4]; time column 2 of 7 (time not given)): 30.7 mmol/L | blood glucose level, mean (db/db mice [4]; time column 3 of 7 (time not given)): 28.4 mmol/L | blood glucose level, mean (db/db mice [4]; time column 4 of 7 (time not given)): 27.7 mmol/L | blood glucose level, mean (db/db mice [4]; time column 6 of 7 (time not given)): 22.6 mmol/L | blood glucose level, mean (db/db mice [4]; time column 7 of 7 (time not printed)): 20.1 mmol/L | blood glucose AUC (db/db mice [4]; Figure 5d, individual mice): 3443.25 and 3088.5 and 2416.5 and 3051.75 and 2479.5 and 3425.25 and 2977.5 and 2793.75 and 3132 and 3001.5 | pH of the solution after 24 hours ([5]; Acetate buffer, blank vehicle 4.54): 4.57 | pH of the solution after 24 hours ([5]; CMC-Na, blank vehicle 6.51): 6.20 | pH of the solution after 24 hours ([5]; FaSSIF-v1, blank vehicle 6.51): 6.54 | pH of the solution after 24 hours ([5]; FeSSIF-v1, blank vehicle 5.04): 5.03 | pH of the solution after 24 hours ([5]; HCl solution, blank vehicle 1.08): 1.05 | pH of the solution after 24 hours ([5]; Phosphate buffer, blank vehicle 6.84): 6.90 | pH of the solution after 24 hours ([5]; SGF, blank vehicle 2.03): 2.07 | solubility at 0.5 h ([6]; Acetate buffer (pH 4.5)): 2080 µg/mL | solubility at 1 h ([6]; Acetate buffer (pH 4.5)): 2070 µg/mL | solubility at 2 h ([6]; Acetate buffer (pH 4.5)): 1540 µg/mL | solubility at 24 h ([6]; Acetate buffer (pH 4.5)): 1540 µg/mL | BBR dissolved in CMC-Na (Figure S7a) ([6]; time 0.5): 1.991 | BBR dissolved in CMC-Na (Figure S7a) ([6]; time 1): 2.188 | BBR dissolved in CMC-Na (Figure S7a) ([6]; time 2): 2.102 | BBR dissolved in CMC-Na (Figure S7a) ([6]; time 24): 2.4551 | solubility at 0.5 h [6, 10]: 151 µg/mL | solubility at 24 h [6, 10]: 64.1 µg/mL | solubility at 1 h [6, 11]: 126 µg/mL | solubility at 2 h [6, 11]: 87.2 µg/mL | solubility at 0.5 h [6, 12]: 137 µg/mL | solubility at 2 h [6, 12]: 73.3 µg/mL | solubility at 24 h [6, 12]: 63.1 µg/mL | solubility at 1 h ([6]; FeSSIF-V1 (fed state simulated intestinal fluid), FeSSIF-V1 (pH 5.0)): 107 µg/mL | solubility at 2 h ([6]; HCl solution (pH 1.0)): 106 µg/mL | solubility at 24 h ([6]; HCl solution (pH 1.0)): 81.1 µg/mL | solubility at 0.5 h ([6]; Phosphate buffer (pH 6.8)): 2290 µg/mL | solubility at 1 h ([6]; Phosphate buffer (pH 6.8)): 2380 µg/mL | solubility at 2 h ([6]; Phosphate buffer (pH 6.8)): 1790 µg/mL | solubility at 24 h ([6]; Phosphate buffer (pH 6.8)): 1950 µg/mL | solubility at 0.5 h [6, 13]: 172 µg/mL | solubility at 1 h [6, 13]: 175 µg/mL | solubility at 2 h [6, 13]: 140 µg/mL | solubility at 24 h ([6]; SGF (simulated gastric fluid), SGF (pH 2.0)): 110 µg/mL | solubility at 0.5 h [6, 14]: 137 µg/mL | solubility at 1 h [6, 14]: 146 µg/mL
